Patent publication US20200069691A1, “HETEROCYCLIC COMPOUNDS AS HIV PROTEASE INHIBITORS” (Merck Sharp & Dohme Corp., priority 2016, published 2020)

Biological target: T1, wild-type HIV-1 protease (Human immunodeficiency virus type 1 group M subtype B, UniProt P04585)
T1 construct: Escherichia coli expressed wild-type HIV-1 protease protein
Assay: Assay for Inhibition of Microbial Expressed HIV Protease (peptide substrate cleavage, LC-MS/MS readout)
Type: biochemical
Settings: E. coli expressed wild-type HIV-1 protease, mean of at least two independent experiments, read-out: HIV Pr Enzyme HIV1 PR IC50
In short: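 Cleavage of Val-Ser-Gln-Asn-(β-naphthyl)Ala-Pro-Ile-Val (400 μM) by recombinant HIV-1 protease ([…]) ran 1 h at 30 °C after a 30 min room-temperature inhibitor preincubation in 50 mM sodium acetate pH 5.5. Product peak areas by LC-MS/MS gave inhibition; values average at least two independent runs.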

Structure (SMILES) | IC50
CC(C)CC[C@]1(c2ccccc2)NC(=N)N([C@H](C)c2cccc(C(=O)N3Cc4cncnc4C3)c2)C1=O [Compound 216, 3-{(1R)-1-[3-(5,7-dihydro-6H-pyrrolo[3,4-d]pyrimidin-6-ylcarbonyl)phenyl]ethyl}-2-imino-5-(3-methylbutyl)-5-phenylimidazolidin-4-one] | 10.2 nM
CC(C)CC[C@]1(c2ccccc2)NC(=N)N([C@H](C)c2cccc(C(=O)N3Cc4nccnc4C3)c2)C1=O [Compound 217, 3-{(1R)-1-[3-(5,7-dihydro-6H-pyrrolo[3,4-b]pyrazin-6-ylcarbonyl)phenyl]ethyl}-2-imino-5-(3-methylbutyl)-5-phenylimidazolidin-4-one] | 10.3 nM
CC(C)CCC1(c2ccccc2)NC(=N)N(Cc2cccc(C(=O)N3Cc4cccnc4C3)c2)C1=O (centres unmarked) [Compound 218, 3-[3-(5,7-dihydro-6H-pyrrolo[3,4-b]pyridin-6-ylcarbonyl)benzyl]-2-imino-5-(3-methylbutyl)-5-phenylimidazolidin-4-one] | 10.5 nM
N=C1NC(c2ccccc2)(c2ccccc2)C(=O)N1Cc1cccc(C(=O)N2Cc3nccnc3C2)c1 [Compound 219, 3-[3-(5,7-dihydro-6H-pyrrolo[3,4-b]pyrazin-6-ylcarbonyl)benzyl]-2-imino-5,5-diphenylimidazolidin-4-one] | 11 nM
CN(C)c1ncnc2c1CN(C(=O)c1cccc(CN3C(=N)NC(c4ccc(F)cc4)(c4ccc(F)cc4)C3=O)c1)C2 [Compound 220, 3-(3-{[4-(dimethylamino)-5,7-dihydro-6H-pyrrolo[3,4-d]pyrimidin-6-yl]carbonyl}benzyl)-5,5-bis(4-fluorophenyl)-2-iminoimidazolidin-4-one] | 11 nM
COC(=O)N1CCN(C(=O)c2cccc([C@@H](C)N3C(=N)N[C@](CCC(C)C)(c4ccccc4)C3=O)c2)CC1 [Compound 221, methyl 4-[(3-{(1R)-1-[2-imino-4-(3-methylbutyl)-5-oxo-4-phenyl-imidazolidin-1-yl]ethyl}phenyl)-carbonyl]piperazine-1-carboxylate] | 11.1 nM
CC(C)CC1(c2ccccc2)NC(=N)N(Cc2cccc(C(=O)N3Cc4cnc(C#N)nc4C3)c2)C1=O (centres unmarked) [Compound 222, 6-[(3-{[2-imino-4-(2-methylpropyl)-5-oxo-4-phenylimidazolidin-1-yl]methyl}phenyl)carbonyl]-6,7-dihydro-5H-pyrrolo[3,4-d]pyrimidine-2-carbonitrile] | 11.1 nM
CC(c1cccc(C(=O)N2Cc3ccccc3C2)c1)N1C(=N)NC(c2ccccc2)(c2ccccc2)C1=O (centres unmarked) [Compound 224, 3-{1-[3-(1,3-dihydro-2H-isoindol-2-ylcarbonyl)phenyl]ethyl}-2-imino-5,5-diphenylimidazolidin-4-one] | 11.9 nM
CCC(c1cccc(C(=O)N2Cc3ccccc3C2)c1)N1C(=N)NC(c2ccccc2)(c2ccccc2)C1=O (centres unmarked) [Compound 225, 3-{1-[3-(1,3-dihydro-2H-isoindol-2-ylcarbonyl)phenyl]propyl}-2-imino-5,5-diphenylimidazolidin-4-one] | 11.9 nM
Cc1cc2c(cn1)CN(C(=O)c1cccc(CN3C(=N)NC(c4ccc(F)cc4)(c4ccc(F)cc4)C3=O)c1)C2 [Compound 226, 5,5-bis(4-fluorophenyl)-2-imino-3-{3-[(6-methyl-1,3-dihydro-2H-pyrrolo[3,4-c]pyridin-2-yl)carbonyl]benzyl} imidazolidin-4-one] | 12.4 nM
CC(C)CCC1(c2ccccc2)NC(=N)N(Cc2cccc(C(=O)N3Cc4cncnc4C3)c2)C1=O (centres unmarked) [Compound 227, 3-[3-(5,7-dihydro-6H-pyrrolo[3,4-d]pyrimidin-6-ylcarbonyl)benzyl]-2-imino-5-(3-methylbutyl)-5-phenylimidazolidin-4-one] | 12.6 nM
C[C@H](c1cccc(C(=O)N2Cc3cncnc3C2)c1)N1C(=N)NC(c2ccccc2)(c2ccccc2)C1=O [Compound 228, 3-{(1R)-1-[3-(5,7-dihydro-6H-pyrrolo[3,4-d]pyrimidin-6-ylcarbonyl)phenyl]ethyl}-2-imino-5,5-diphenylimidazolidin-4-one] | 13.1 nM
CC(C)CCC1(c2ccc(F)cc2)NC(=N)N(Cc2cccc(C(=O)N3Cc4ccccc4C3)c2)C1=O (centres unmarked) [Compound 229, 3-[3-(1,3-dihydro-2H-isoindol-2-ylcarbonyl)benzyl]-5-(4-fluorophenyl)-2-imino-5-(3-methylbutyl)imidazolidin-4-one] | 13.1 nM
N=C1NC(c2ccccc2)(c2ccccc2)C(=O)N1Cc1cccc(C(=O)N2CCN(c3ncccn3)CC2)c1 [Compound 230, 2-imino-5,5-diphenyl-3-{3-[(4-pyrimidin-2-ylpiperazin-1-yl)carbonyl]benzyl} imidazolidin-4-one] | 13.1 nM
C[C@H](c1cccc(C(=O)N2Cc3ccccc3C2)c1)N1C(=N)NC(c2ccc(F)cc2)(c2ccc(F)cc2)C1=O [Compound 231, 3-{(1R)-1-[3-(1,3-dihydro-2H-isoindol-2-ylcarbonyl)phenyl]ethyl}-5,5-bis(4-fluorophenyl)-2-iminoimidazolidin-4-one] | 13.3 nM
N=C1NC(c2ccc(F)cc2)(c2ccc(F)cc2)C(=O)N1Cc1cccc(C(=O)N2Cc3ccc(F)cc3C2)c1 [Compound 232, 3-{3-[(5-fluoro-1,3-dihydro-2H-isoindol-2-yl)carbonyl]benzyl}-5,5-bis(4-fluorophenyl)-2-iminoimidazolidin-4-one] | 13.5 nM
N=C1NC(c2ccccc2)(c2ccccc2)C(=O)N1Cc1cccc(C(=O)N2Cc3ccc(C(F)(F)F)cc3C2)c1 [Compound 233, 2-imino-5,5-diphenyl-3-(3-{[5-(trifluoromethyl)-1,3-dihydro-2H-isoindol-2-yl]carbonyl}benzyl)-imidazolidin-4-one] | 14 nM
COC(=O)N1CCN(C(=O)c2cccc(CN3C(=N)NC(c4ccc(F)cc4)(c4cccc(-c5cccc(C#N)c5)c4)C3=O)c2)CC1 (centres unmarked) [Compound 234, methyl 4-[(3-{[4-(3′-cyanobiphenyl-3-yl)-4-(4-fluorophenyl)-2-imino-5-oxoimidazolidin-1-yl]methyl}phenyl)-carbonyl]piperazine-1-carboxylate] | 14.2 nM
CC(C)CC1(c2ccccc2)NC(=N)N(Cc2cccc(C(=O)N3Cc4nccnc4C3)c2)C1=O (centres unmarked) [Compound 235, 3-[3-(5,7-dihydro-6H-pyrrolo[3,4-b]pyrazin-6-ylcarbonyl)benzyl]-2-imino-5-(2-methylpropyl)-5-phenylimidazolidin-4-one] | 14.4 nM
CCCC1(c2ccccc2)NC(=N)N(Cc2cccc(C(=O)N3Cc4ccccc4C3)c2)C1=O (centres unmarked) [Compound 236, 3-[3-(1,3-dihydro-2H-isoindol-2-ylcarbonyl)benzyl]-2-imino-5-phenyl-5-propylimidazolidin-4-one] | 14.4 nM
CC(C)C[C@]1(c2ccccc2)NC(=N)N([C@H](C)c2cccc(C(=O)N3Cc4nccnc4C3)c2)C1=O [Compound 237, 3-{(1R)-1-[3-(5,7-dihydro-6H-pyrrolo[3,4-b]pyrazin-6-ylcarbonyl)phenyl]ethyl}-2-imino-5-(2-methylpropvl)-5-phenylimidazolidin-4-one] | 14.5 nM
N=C1NC(c2ccccc2)(c2ccccc2)C(=O)N1Cc1cccc(C(=O)N2CCN(c3ccccc3Cl)CC2)c1 [Compound 238, 3-(3-{[4-(2-chlorophenyl)piperazin-1-yl]carbonyl}benzyl)-2-imino-5,5-diphenylimidazolidin-4-one] | 15 nM
COC(=O)N1CCN(C(=O)c2cccc(CN3C(=N)NC(CCC(C)C)(c4ccc(F)cc4)C3=O)c2)CC1 (centres unmarked) [Compound 239, methyl 4-[(3-{[4-(4-fluorophenyl)-2-imino-4-(3-methylbutyl)-5-oxoimidazolidin-1-yl]methyl}phenyl)carbonyl] piperazine-1-carboxylate] | 15.1 nM
COC(=O)N1CCN(C(=O)c2cccc(CN3C(=N)NC(c4ccc(F)cc4)(c4cccc(Br)c4)C3=O)c2)CC1 (centres unmarked) [Compound 240, methyl 4-[(3-{[4-(3-bromophenyl)-4-(4-fluorophenyl)-2-imino-5-oxoimidazolidin-1-yl]methyl}phenyl)carbonyl] piperazine-1-carboxylate] | 15.2 nM
Cn1ncc2c1CN(C(=O)c1cccc(CN3C(=N)NC(c4ccccc4)(c4ccccc4)C3=O)c1)C2 [Compound 241, 2-imino-3-{3-[(1-methyl-4,6-dihydropyrrolo [3,4-c]pyrazol-5(1H)-yl)carbonyl]benzyl}-5,5-diphenylimidazolidin-4-one] | 15.6 nM
N=C1NC(c2ccccc2)(c2ccccc2)C(=O)N1Cc1cccc(C(=O)N2Cc3cnc(C(F)(F)F)nc3C2)c1 [Compound 242, 2-imino-5,5-diphenyl-3-(3-{[2-(trifluoromethyl)-5,7-dihydro-6H-pyrrolo[3,4-d]pyrimidin-6-yl]carbonyl}benzyl) imidazolidin-4-one] | 16.6 nM
CCCC1(c2ccccc2)NC(=N)N(Cc2cccc(C(=O)N3Cc4cnc(C#N)nc4C3)c2)C1=O (centres unmarked) [Compound 243, 6-({3-[(2-imino-5-oxo-4-phenyl-4-propylimidazolidin-1-yl)methyl]phenyl}carbonyl)-6,7-dihydro-5H-pyrrolo[3,4-d]pyrimidine-2-carbonitrile] | 16.7 nM
CC(C)CCC1(c2ccccc2)NC(=N)N(Cc2cccc(C(=O)N3CCN(c4ncccn4)CC3)c2)C1=O (centres unmarked) [Compound 244, 2-imino-5-(3-methylbutyl)-5-phenyl-3-{3-[(4-pyrimidin-2-ylpiperazin-1-yl)carbonyl]benzyl} imidazolidin-4-one] | 16.8 nM
CCOC(=O)c1cn2c(n1)CN(C(=O)c1cccc(CN3C(=N)NC(c4ccccc4)(c4ccccc4)C3=O)c1)CC2 [Compound 245, ethyl 7-({3-[(2-imino-5-oxo-4,4-diphenylimidazolidin-1-yl)methyl]phenyl}carbonyl)-5,6,7,8-tetrahydroimidazo[1,2-a]pyrazine-2-carboxylate] | 17.1 nM
